What was measured:
[1] = test system: patients having prednisone-induced osteoporosis complicated by arthralgia; settings: daily administration; cited from earlier work
[2] = test system: nausea and vomiting associated with administration of the test drug; assay: Working Example 2: prescriptions for nausea and vomiting associated with administration of the test drug; settings: given before test drug
Source text: The administration period and efficacy of various drugs to treat nausea and vomiting associated with administration of the test drug were studied.

[3] = PTH 20 μg/day; blood samples 4 to 6 hours after administration; cited from earlier work

CC[C@H](C)[C@H](NC(=O)[C@H](CCC(=O)O)NC(=O)[C@H](CO)NC(=O)[C@@H](NC(=O)[C@@H](N)CO)C(C)C)C(=O)N[C@@H](CCC(N)=O)C(=O)N[C@@H](CC(C)C)C(=O)N[C@@H](CCSC)C(=O)N[C@@H](Cc1cnc[nH]1)C(=O)N[C@@H](CC(N)=O)C(=O)N[C@@H](CC(C)C)C(=O)NCC(=O)N[C@@H](CCCCN)C(=O)N[C@@H](Cc1cnc[nH]1)C(=O)N[C@@H](CC(C)C)C(=O)N[C@@H](CC(N)=O)C(=O)N[C@@H](CO)C(=O)N[C@@H](CCSC)C(=O)N[C@@H](CCC(=O)O)C(=O)N[C@@H](CCCN=C(N)N)C(=O)N[C@H](C(=O)N[C@@H](CCC(=O)O)C(=O)N[C@@H](Cc1c[nH]c2ccccc12)C(=O)N[C@@H](CC(C)C)C(=O)N[C@@H](CCCN=C(N)N)C(=O)N[C@@H](CCCCN)C(=O)N[C@@H](CCCCN)C(=O)N[C@@H](CC(C)C)C(=O)N[C@@H](CCC(N)=O)C(=O)N[C@@H](CC(=O)O)C(=O)N[C@H](C(=O)N[C@@H](Cc1cnc[nH]1)C(=O)N[C@@H](CC(N)=O)C(=O)N[C@@H](Cc1ccccc1)C(=O)O)C(C)C)C(C)C [Forteo, teriparatide (rDNA origin)]
Bone strengthening effect compared with Fosamax [1]: stronger bone strengthening effect than Fosamax

O=c1[nH]c2ccccc2n1CCCN1CCC(n2c(=O)[nH]c3cc(Cl)ccc32)CC1 [Nauzelin, domperidone]
Effective or ineffective ([2]; event: nausea): Effective
Effective or ineffective ([2]; event: vomiting): Effective

PTH: PTH (parathyroid hormone) preparation given daily (20 μg/day) in cited osteoporosis trials
Patients with hypercalcemia [3]: 11%
Patients with persistent hypercalcemia [3]: 3%

From patent publication US20120252729A1, “PTH-CONTAINING THERAPEUTIC/PROPHYLACTIC AGENT FOR OSTEOPOROSIS, CHARACTERIZED IN THAT PTH IS ADMINISTERED ONCE A WEEK IN A UNIT DOSE OF 100 TO 200 UNITS” (ASAHI KASEI PHARMA CORPORATION, priority 2009, published 2012)
